Columns and labels:
Format in all cases: cell-based
[1] = system: Respiratory syncytial virus recombinant with luciferase (RSV-Luc5); experiment: NHBE RSV-Luc5 384-well assay (EC50 RSVFLUC NHBE-384 v2), Example W; details: human respiratory syncytial virus, 72 h, read-out: EC50 RSV FLUC NHBE 384 V2 (per Ex. W)
Source text: Example W: NHBE RSV-Luc5 384-Well Assay (EC50 RSVFLUC NHBE-384 v2)
Normal Human Bronchial Epithelial (NHBE) cells were purchased from Lonza (Walkersville, MD Cat #CC2540) and maintained in BEGM Bronchial Epithelial Cell Growth Medium BulletKit (Lonza CC-3170).
Cells were thawed, expanded, and were used for experiments at passage 2. Respiratory syncytial virus recombinant with luciferase (RSV-Luc5) (≥1×10^7 Infectious Units/mL (IU/mL) determined by TCID50) was purchased from Microbiologics (Saint Cloud, MN). Viral replication was determined in NHBE cells in the following manner.
(§1) Compounds are prepared in 100% DMSO in 384-well polypropylene plates (Greiner, Monroe, NC, Cat #784201) with 8 compounds per plate in grouped replicates of 4 at 10 serially diluted concentrations (1:3). The serially diluted compounds were transferred to low dead volume Echo plates (Labcyte, Sunnyvale, CA, Cat #LP-0200).
The test compounds were spotted to 384-well assay plates (Greiner, Monroe, NC, Cat #781091) at 200 nL per well using an Echo acoustic dispenser (Labcyte, Sunnyvale, CA). NHBE cells were harvested and suspended in BEGM Bronchial Epithelial Cell Growth Medium BulletKit and seeded to the pre-spotted assay plates at 5,000 cells per well in 30 μL. RSV-Luc5 virus was diluted in BEGM Bronchial Epithelial Cell Growth Medium BulletKit at 500,000 Infectious Units (IU) per mL and 10 μL per well was added to the assay plates containing cells and compounds, for an MOI of 1. The assay plates were incubated for 3 days at 37° C. and 5% CO2. At the end of incubation, One-Glo reagent (Promega, Madison, WI, Cat #E6120) was prepared. The assay plates and One-Glo reagent were equilibrated to room temperature for at least 15 minutes. 40 μL per well of One-Glo reagent was added and the plates were incubated at room temperature for 15 minutes before reading the luminescence signal on an EnVision multimode plate reader (Perkin Elmer, Waltham, MA). Remdesivir was used as positive control and DMSO was used as negative control. Values were normalized to the positive and negative controls (as 0% and 100% replication, respectively) and data was fitted using non-linear regression analysis by Gilead's dose response tool. The EC50 value for each compound was defined as the concentration reducing the viral replication by 50%.

[2] = system: Respiratory syncytial virus recombinant with luciferase (RSV-Luc5); experiment: HEp-2 RSV-Luc5 384-well assay (EC50 RSVFLUC Hep2-384 v2), Example V; details: human respiratory syncytial virus, HEp-2, 72 h, read-out: EC50 RSV FLuc Hep-2 384 V2 (per Ex. V)
Source text: Example V: HEp-2 RSV-Luc5 384-Well Assay (EC50 RSVFLUC Hep2-384 v2)
HEp-2 cell line was purchased from ATCC (Manassas, VA Cat #CCL-23) and maintained in Dulbecco's […] (DMEM) (Corning, New York, NY, Cat #15-018CM) supplemented with 10% fetal bovine serum (FBS) (Hyclone, Logan, UT, Cat #SH30071-03) and 1× Penicillin-Streptomycin-L-Glutamine (Corning, New York, NY, Cat #30-009-C1). Cells were passaged 2 times per week to maintain sub-confluent densities and were used for experiments at passage 5-20. Respiratory syncytial virus recombinant with luciferase (RSV-Luc5) (≥1×107 TCID50/ml) was purchased from Microbiologics (Saint Cloud, MN). Viral replication was determined in HEp-2 cells in the following manner.
as §1
The test compounds were spotted to 384-well assay plates (Greiner, Monroe, NC, Cat #781091) at 200 nL per well. HEp-2 cells were harvested and suspended in DMEM (supplemented with 10% FBS and 1× Penicillin-Streptomycin-L-Glutamine) and seeded to the pre-spotted assay plates at 4,000 cells per well in 30 μL. RSV-Luc5 viruses were diluted in DMEM (supplemented with 10% FBS and 1× Penicillin-Streptomycin-L-(Glutamine) at 200,000 Infectious Units (IU) per mL and 10 μL per well was added to the assay plates containing cells and compounds, for an MOI=0.5. The assay plates were incubated for 3 days at 37° C. and 5% CO2. At the end of incubation, One-Glo reagent (Promega, Madison, WI, Cat #E6120) was prepared. The assay plates and One-Glo reagent were equilibrated to room temperature for at least 15 minutes. 40 μL per well of One-Glo reagent was added and the plates were incubated at room temp for 15 minutes before reading the luminescence signal on an EnVision multimode plate reader (Perkin Elmer, Waltham, MA). Remdesivir was used as positive control and DMSO was used as negative control. Values were normalized to the positive and negative controls (as 0% and 100% replication, respectively) and data was fitted using non-linear regression analysis by Gilead's dose response tool. The EC50 value for each compound was then determined as the concentration reducing the viral replication by 50%.

[3] = system: Human Rhinovirus 14 (HRV14); experiment: H1-HeLa HRV-CTG 384-well assay, HRV14, Example X; details: Rhinovirus B, 96 h; H1-HeLa cells, HRV14 MOI 1.0, 4 days, Celltiter-Glo; read-out: EC50 H1-HeLa_HRV 14_HRV-CTG 384-well Assay (per Ex. X)
Source text: (§2) Example X: H1-HeLa HRV-CTG 384-Well Assay
(§3) H1-Hela cell line (ATCC, Manassas, VA, Cat #CRL-1958) was maintained in Dulbecco's […] (DMEM) (Corning, New York, NY, Cat #15-018CM) supplemented with 10% fetal bovine serum (FBS) (Hyclone, Logan, UT, Cat #SH30071-03), and 1× Penicillin-Streptomycin-L-Glutamine (Corning, New York, NY, Cat #30-009-CI). Cells were passaged 2 times per week to maintain sub-confluent densities and were used for experiments at passage 5-30. The Human Rhinovirus 1B (HRV1B) (ATCC, Manassas, VA, Cat #VR-1645), Human Rhinovirus 14 (HRV14) (ATCC, Manassas, VA, Cat #VR-284), and Human Rhinovirus 16 (HRV16) (ATCC, Manassas, VA, Cat #BR-283) was obtained through ATCC. Viral infection was monitored by determining viability of H1-HeLa cells as described below.
as §1, with “Test molecules” for “Compounds”
(§4) The test compounds were spotted to 384-well assay plates (Greiner, Monroe, NC, Cat #781091) at 200 nL per well using an Echo acoustic dispenser (Labcyte, Sunnyvale, CA). H1-HeLa cells were harvested and suspended in DMEM (supplemented with 2% FBS and 1× Penicillin-Streptomycin-L-Glutamine) and seeded to the pre-spotted assay plates at 5,000 cells per well in 30 μL. HRV1B, HRV14, and HRV16 was diluted in DMEM (supplemented with 2% FBS and 1× Penicillin-Streptomycin-L-Glutamine) at 97.1 million Infectious Units (IU) per mL, 151 million IU per mL and 221 million IU per mL respectively. 10 μL of virus per well was added to the assay plates containing cells and compounds, for an MOI of 0.5, 1.0, and 0.25 respectively. The assay plates were incubated for 4 days at 37° C. and 5% CO2. At the end of incubation, Celltiter-Glo (Promega, Madison, WI, Cat #G7573) was prepared. The assay plates and Celltiter-Glo reagent were equilibrated to room temperature for at least 15 minutes. 40 μL per well of Celltiter-Glo reagent was added and the plates were incubated at room temperature for 15 minutes before reading the luminescence signal on an EnVision multimode plate reader (Perkin Elmer, Waltham, MA). Rupintrivir was used as positive control and DMSO was used as negative control. Values were normalized to the positive and negative controls (as 0% and 100% replication, respectively) and data was fitted using non-linear regression analysis by Gilead's dose response tool. The EC50 value for each compound was defined as the concentration reducing viral replication by 50%.

[4] = system: Human Rhinovirus 16 (HRV16); experiment: H1-HeLa HRV-CTG 384-well assay, HRV16, Example X; details: Rhinovirus A, 96 h; H1-HeLa cells, HRV16 MOI 0.25, 4 days, Celltiter-Glo; read-out: EC50 H1-HeLa_HRV 16_HRV-CTG 384-well Assay (per Ex. X)
Source text: as §2, §3
as §1, with “Test molecules” for “Compounds”
as §4

[5] = system: Human Rhinovirus 1B (HRV1B); experiment: H1-HeLa HRV-CTG 384-well assay, HRV1B, Example X; details: Rhinovirus A, 96 h; H1-HeLa cells, HRV1B MOI 0.5, 4 days, Celltiter-Glo; read-out: EC50 H1-HeLa_HRV 1B_HRV-CTG 384-well Assay (per Ex. X)
Source text: as §2, §3
as §1, with “Test molecules” for “Compounds”
as §4

SMILES | EC50 [1] | EC50 [2] | EC50 [3] | EC50 [4] | EC50 [5]
CO[C@@H]1O[C@H]2[C@H](c3ccc4c(N)ncnn34)O[C@](C#N)(COC(=O)OCC(C)C)[C@H]2O1 (single isomer, unassigned) [Compound 25] | 50 µM | 50 µM | 50 µM | 50 µM | 50 µM
CO[C@H]1O[C@H]2[C@H](c3ccc4c(N)ncnn34)O[C@](C#N)(COC(=O)OCC(C)C)[C@H]2O1 (single isomer, unassigned) [Compound 26] | 50 µM | 50 µM | 50 µM | 50 µM | 50 µM
CC1(OC(=O)OC[C@@]2(C#N)O[C@@H](c3ccc4c(N)ncnn34)[C@H](O)[C@@H]2O)CC1 [Compound 3, ((2R,3S,4R,5S)-5-(4-aminopyrrolo[2,1-f][1,2,4]triazin-7-yl)-2-cyano-3,4-dihydroxytetrahydrofuran-2-yl)methyl (1-methylcyclopropyl) carbonate] | 7.93 µM | 20.9 µM | 24.4 µM | 34.5 µM | 16 µM
N#C[C@]1(COC(=O)OC2CCCCCCC2)O[C@@H](c2ccc3c(N)ncnn23)[C@H](O)[C@@H]1O [Compound 18, ((2R,3S,4R,5S)-5-(4-aminopyrrolo[2,1-f][1,2,4]triazin-7-yl)-2-cyano-3,4-dihydroxytetrahydrofuran-2-yl)methyl cyclooctyl carbonate] | 5.77 µM |  |  |  | 
CC(C)(OC(=O)OC[C@@]1(C#N)O[C@@H](c2ccc3c(N)ncnn23)[C@H](O)[C@@H]1O)C(F)F [Compound 27, ((2R,3S,4R,5S)-5-(4-aminopyrrolo[2,1-f][1,2,4]triazin-7-yl)-2-cyano-3,4-dihydroxytetrahydrofuran-2-yl)methyl (1,1-difluoro-2-methylpropan-2-yl) carbonate] | 8.03 µM |  |  |  | 
CC(C)OC(=O)Nc1ncnn2c([C@@H]3O[C@](C#N)(COC(=O)OC(C)C)[C@@H](OC(=O)OC(C)C)[C@H]3OC(=O)OC(C)C)ccc12 [Compound 42, Isopropyl (7-((2S,3S,4S,5R)-5-cyano-3,4-bis((isopropoxycarbonyl)oxy)-5-(((isopropoxycarbonyl)oxy)methyl)tetrahydrofuran-2-yl)pyrrolo[2,1-f][1,2,4]triazin-4-yl)carbamate] | 26.1 µM |  |  |  | 
CC(C)OC(=O)OC[C@@]1(C#N)O[C@@H](c2ccc3c(N)ncnn23)[C@H](OC(=O)OC(C)C)[C@@H]1OC(=O)OC(C)C [Compound 43, (2R,3S,4S,5S)-5-(4-aminopyrrolo[2,1-f][1,2,4]triazin-7-yl)-2-cyano-2-(((isopropoxycarbonyl)oxy)methyl)tetrahydrofuran-3,4-diyl diisopropyl bis(carbonate)] | 6.99 µM |  |  |  | 
COC(=O)Nc1ncnn2c([C@@H]3O[C@](C#N)(COC(=O)OC)[C@@H](OC(=O)OC)[C@H]3OC(=O)OC)ccc12 [Compound 44, Methyl (7-((2S,3S,4S,5R)-5-cyano-3,4-bis((methoxycarbonyl)oxy)-5-(((methoxycarbonyl)oxy)methyl)tetrahydrofuran-2-yl)pyrrolo[2,1-f][1,2,4]triazin-4-yl)carbamate] | 15.8 µM |  |  |  | 
COC(=O)OC[C@@]1(C#N)O[C@@H](c2ccc3c(N)ncnn23)[C@H](OC(=O)OC)[C@@H]1OC(=O)OC [Compound 45, (2R,3S,4S,5S)-5-(4-aminopyrrolo[2,1-f][1,2,4]triazin-7-yl)-2-cyano-2-(((methoxycarbonyl)oxy)methyl)tetrahydrofuran-3,4-diyl dimethyl bis(carbonate)] | 29.4 µM |  |  |  | 
